Data set [1] is described as follows: Time taken to reduce 50% of the concentration of compound in blood plasma. The data set is classed as ADME, tissue-based. The conditions noted are these: human.
Data set [2] addresses Pancreatic elastase (Sus scrofa, UniProt P08419+P00772). Description: Compound was tested for its activity against porcine Pancreatic elastase. The format is protein assay.
Data set [3] concerns the target Chymotrypsinogen A (Bos taurus, UniProt P00766). As to the kind of experiment: Compound was tested for its activity against bovine pancreatic Alpha-chymotrypsin (BPC).
In data set [4] the target is T1, Neutrophil elastase (Homo sapiens, UniProt P08246).
T1 sequence (P08246 whole entry): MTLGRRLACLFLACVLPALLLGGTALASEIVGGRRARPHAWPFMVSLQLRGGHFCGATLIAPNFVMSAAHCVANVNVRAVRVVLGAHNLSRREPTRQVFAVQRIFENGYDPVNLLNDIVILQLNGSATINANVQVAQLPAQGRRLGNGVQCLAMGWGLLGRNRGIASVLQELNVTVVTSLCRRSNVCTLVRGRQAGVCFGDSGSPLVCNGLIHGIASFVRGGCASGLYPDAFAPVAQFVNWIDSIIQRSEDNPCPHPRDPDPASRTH
As to the kind of experiment: Compound was tested for its activity against human leukocyte elastase(HLE).

Each structure is given as a SMILES string. Where only a bound is given, the exact number is not on record here.

`O=C1C[C@H](Cc2ccccc2)N1C(=O)NCCc1ccccc1`: the half-life (in general, the time needed for the level to fall by half in the phase considered) in data set [1] is 36 h.

Compound `CN(Cc1ccccc1)C(=O)N1C(=O)C[C@@H]1Cc1ccccc1` gave a half-life in data set [1] of 36 h.

The compound `O=C1C[C@H](Cc2ccccc2)N1C(=O)N(Cc1ccccc1)OCc1ccccc1` had a half-life in data set [1] of under 12 h.

For the compound `O=C1C[C@H](Cc2ccccc2)N1C(=O)NCc1ccccn1`, in data set [1], the half-life was 36 h.

As for `C[C@H]1C(=O)N(C(=O)NCc2ccncc2)[C@H]1Cc1ccccc1`, the half-life in data set [1] was 36 h. Besides, the IC50 (in general, the midpoint of a concentration-inhibition curve) in data set [2] turned out to be 19 µM.

`O=C1C[C@H](Cc2ccccc2)N1C(=O)Nc1ccc(F)cc1` came in with a half-life in data set [1] of under 12 h.

For the compound `CO[C@@H]1C(=O)N(C(=O)NCc2ccncc2)[C@H]1Cc1ccccc1`, the half-life in data set [1] was under 12 h. Also, the IC50 in data set [3] is 38 µM; in data set [4], 0.9 µM; in data set [2] it was 0.3 µM.

The compound `Cc1ccc(NC(=O)N2C(=O)C[C@@H]2Cc2ccccc2)cc1` showed a half-life in data set [1] of under 12 h.

`CC[C@@H]1C(=O)N(C(=O)NCc2ccncc2)[C@H]1Cc1ccccc1` had a half-life in data set [1] of 48 h. Further, the IC50 in data set [3] turned out to be 19 µM; in data set [2], 1.7 µM.

`O=C1C[C@H](Cc2ccccc2)N1C(=O)Nc1ccccc1` came in with a half-life in data set [1] of under 12 h.

Compound `CON(Cc1ccccc1)C(=O)N1C(=O)C[C@@H]1Cc1ccccc1` showed a half-life in data set [1] of under 12 h.

In data set [1], `C[C@@H]1C(=O)N(C(=O)NCc2ccncc2)[C@H]1Cc1ccccc1` showed a half-life of 36 h. The IC50 in data set [2] stood at 53 µM.

Regarding `O=C1C[C@H](Cc2ccccc2)N1C(=O)N(Cc1ccccc1)C1CC1`, the half-life in data set [1] was 48 h.

`O=C1C[C@H](Cc2ccccc2)N1C(=O)NCc1ccccc1` showed a half-life in data set [1] of 36 h.

For the compound `CS[C@@H]1C(=O)N(C(=O)NCc2ccncc2)[C@H]1Cc1ccccc1`, the half-life in data set [1] is under 12 h. The IC50 in data set [3] was 2.2 µM; in data set [4], under 0.2 µM; in data set [2], under 0.2 µM.

The compound `C=CC[C@@H]1C(=O)N(C(=O)NCc2ccncc2)[C@H]1Cc1ccccc1` showed a half-life in data set [1] of 36 h. Further, the IC50 in data set [3] is 6 µM; in data set [4], 0.3 µM; in data set [2] it was 4.7 µM.

Compound `CCN(Cc1ccccc1)C(=O)N1C(=O)C[C@@H]1Cc1ccccc1` gave a half-life in data set [1] of 48 h.

As to `COc1ccc(NC(=O)N2C(=O)C[C@@H]2Cc2ccccc2)cc1`, the half-life in data set [1] is 12 h.

In turn, `O=C1C[C@H](Cc2ccccc2)N1C(=O)NCc1ccncc1` gave a half-life in data set [1] of 24 h. The IC50 in data set [3], in data set [4] and in data set [2] was over 75 µM each time.

In turn, `O=C1C[C@H](Cc2ccccc2)N1C(=O)NC1CCCCC1` gave a half-life in data set [1] of 24 h.

`O=C1C[C@H](Cc2ccccc2)N1C(=O)NCc1cccnc1` gave a half-life in data set [1] of 24 h.

In data set [1], `CC1(C)C(=O)N(C(=O)NCc2ccncc2)[C@H]1Cc1ccccc1` gave a half-life of 120 h. The figures for the IC50 in data set [3], in data set [4] and in data set [2] were over 75 µM, 3 µM and 45 µM, respectively.

In data set [1], `CC1(C)C(=O)N(C(=O)NCc2ccncc2)C1Cc1ccccc1` (single isomer, unassigned) gave a half-life of 120 h.

The values are drawn from ChEMBL document CHEMBL1131042, “beta-Lactam derivatives as inhibitors of human cytomegalovirus protease” (J Med Chem, 1998).
